Measured values reported in US20170226081A1, “GLUCOSE TRANSPORT INHIBITORS” (Bayer Pharma Aktiengesellschaft, priority 2014, published 2017).

Molecular target: T1, GLUT1 (Homo sapiens, UniProt P11166)
T1 construct: endogenous in cells
T1 sequence (P11166 1-492): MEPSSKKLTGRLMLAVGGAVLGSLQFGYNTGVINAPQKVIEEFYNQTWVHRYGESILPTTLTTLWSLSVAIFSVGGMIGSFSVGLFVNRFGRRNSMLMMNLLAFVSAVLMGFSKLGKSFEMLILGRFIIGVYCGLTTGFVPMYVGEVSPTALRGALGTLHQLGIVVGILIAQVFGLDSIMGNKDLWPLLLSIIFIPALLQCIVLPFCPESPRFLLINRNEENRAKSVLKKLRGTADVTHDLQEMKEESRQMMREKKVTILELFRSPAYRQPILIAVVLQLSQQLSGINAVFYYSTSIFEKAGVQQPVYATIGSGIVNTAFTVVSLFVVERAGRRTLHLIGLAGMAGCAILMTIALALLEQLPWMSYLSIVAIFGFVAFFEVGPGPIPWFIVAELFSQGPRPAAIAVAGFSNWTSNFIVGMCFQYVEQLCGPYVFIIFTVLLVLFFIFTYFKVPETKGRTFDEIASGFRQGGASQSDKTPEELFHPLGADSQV
Assay: Indirect measurement of GLUT activity by quantification of intracellular ATP levels (glucose induced ATP increase)
Format: cell-based
Conditions: DLD1 cells; 1 mM glucose, 1 uM Rotenone, 15 min; standardized to cytochalasin B IC50 values; read-out: IC50 regarding glucose induced ATP increase (GLUT1 inhibition)
Text: It is well known that a combination of small-molecule inhibitors of mitochondrial electron transport chain and glucose catabolism synergistically suppress ATP production and impair cellular viability (Ulanovskaya et al., 2008, 2011; Liu, et al. 2001). We therefore used DLD1 or CHO-K1 cells in combination with an oxidative phosphorylation inhibitor to identify GLUT inhibitors. Cell lines were maintained in DMEM medium supplemented with 10% FCS and 1% Penicillin-Streptomycin solution and 2% Glutamax. The cells were treated with trypsin and seeded into 384 plates at a density of 4000 cells/well. The cells were then cultured overnight in glucose free media containing 1% FCS to reduce intracellular ATP levels. After 24 h the cells were incubated at 37° C. containing the appropriate glucose or in case of GLUT2 fructose concentration (1 mM and 30 mM respectively) with or without compounds and 1 uM Rotenone for 15 min. The CellTiter-Glo® Luminescent Cell Viability Assay from Promega was then used to measure ATP levels. Compounds able to reduce the ATP Levels within 15 min of glucose application were considered to be glucose uptake inhibitors.

Row | SMILES | IC50
1 | CC(c1ccc(C#N)cc1)n1cc(NC(=O)c2cc(C(N)=O)nc3ccccc23)c(C(F)(F)F)n1 (racemic) [Example 40, (±)—N^4-{1-[1-(4-cyanophenyl)ethyl]-3-(trifluoromethyl)-1H-pyrazol-4-yl}quinoline-2,4-dicarboxamide] | 32 nM
2 | COc1cc(C(=O)Nc2cn(Cc3ccc(F)cc3)nc2C)c2ccccc2n1 [Example 3, N-[1-(4-fluorobenzyl)-3-methyl-1H-pyrazol-4-yl]-2-methoxyquinoline-4-carboxamide] | 150 nM
3 | Cc1nn(Cc2ccc(F)cc2)cc1NC(=O)c1cc(C(N)=O)nc2ccccc12 [Example 5, N^4-[1-(4-fluorobenzyl)-3-methyl-1H-pyrazol-4-yl]quinoline-2,4-dicarboxamide] | 15 nM
4 | Cc1nn(Cc2ccc(F)cc2)cc1NC(=O)c1cc(C2CC2)nc2ccc(F)cc12 [Example 6, 2-cyclopropyl-6-fluoro-N-[1-(4-fluorobenzyl)-3-methyl-1H-pyrazol-4-yl]quinoline-4-carboxamide] | 125 nM
5 | Cc1nn(Cc2ccc(F)cc2)cc1NC(=O)c1cc(C(F)(F)F)nc2c(Cl)cc(Cl)cc12 [Example 7, 6,8-dichloro-N-[1-(4-fluorobenzyl)-3-methyl-1H-pyrazol-4-yl]-2-(trifluoromethyl)quinoline-4-carboxamide] | 176 nM
6 | COc1cc(C(=O)Nc2cn(Cc3ccc(C#N)cc3)nc2C)c2ccccc2n1 [Example 10, N-[1-(4-cyanobenzyl)-3-methyl-1H-pyrazol-4-yl]-2-methoxyquinoline-4-carboxamide] | 79 nM
7 | COc1ccc(Cn2cc(NC(=O)c3cc(OC)nc4ccccc34)c(C)n2)cc1 [Example 11, 2-methoxy-N-[1-(4-methoxybenzyl)-3-methyl-1H-pyrazol-4-yl]quinoline-4-carboxamide] | 21 nM
8 | COc1ccc(Cn2cc(NC(=O)c3cc(C(N)=O)nc4ccccc34)c(C)n2)cc1 [Example 13, N^4-[1-(4-methoxybenzyl)-3-methyl-1H-pyrazol-4-yl]quinoline-2,4-dicarboxamide] | 2.3 nM
9 | Cc1nn(Cc2ccccc2C#N)cc1NC(=O)c1cc(C(F)(F)F)nc2ccc(Br)cc12 [Example 14, 6-bromo-N-[1-(2-cyanobenzyl)-3-methyl-1H-pyrazol-4-yl]-2-(trifluoromethyl)quinoline-4-carboxamide] | 97 nM
10 | COc1cc(C(=O)Nc2cn(Cc3ccccc3C#N)nc2C)c2ccccc2n1 [Example 15, N-[1-(2-cyanobenzyl)-3-methyl-1H-pyrazol-4-yl]-2-methoxyquinoline-4-carboxamide] | 116 nM
11 | Cc1nn(Cc2ccccc2C#N)cc1NC(=O)c1cc(C(N)=O)nc2ccccc12 [Example 16, N^4-[1-(2-cyanobenzyl)-3-methyl-1H-pyrazol-4-yl]quinoline-2,4-dicarboxamide] | 137 nM

Further lines, results first:

Row | IC50 | SMILES
12 | 505 nM | Cc1nn(Cc2ccc(F)cc2)cc1NC(=O)c1cc(C(F)(F)F)nc2cc(F)c(F)cc12 [Example 2, 6,7-difluoro-N-[1-(4-fluorobenzyl)-3-methyl-1H-pyrazol-4-yl]-2-(trifluoromethyl)quinoline-4-carboxamide]
13 | 111 nM | Cc1nn(Cc2ccc(F)cc2)cc1NC(=O)c1cc(C(F)(F)F)nc2ccc(Br)cc12 [Example 4, 6-bromo-N-[1-(4-fluorobenzyl)-3-methyl-1H-pyrazol-4-yl]-2-(trifluoromethyl)quinoline-4-carboxamide]
14 | 21 nM | Cc1nn(Cc2ccc(C#N)cc2)cc1NC(=O)c1cc(C(F)(F)F)nc2ccc(Br)cc12 [Example 8, 6-bromo-N-[1-(4-cyanobenzyl)-3-methyl-1H-pyrazol-4-yl]-2-(trifluoromethyl)quinoline-4-carboxamide]
15 | 29 nM | COc1ccc(Cn2cc(NC(=O)c3cc(C(F)(F)F)nc4ccc(Br)cc34)c(C)n2)cc1 [Example 12, 6-bromo-N-[1-(4-methoxybenzyl)-3-methyl-1H-pyrazol-4-yl]-2-(trifluoromethyl)quinoline-4-carboxamide]
16 | 64 nM | COC(=O)c1nn(Cc2ccc(F)cc2)cc1NC(=O)c1cc(C(F)(F)F)nc2ccc(Br)cc12 [Example 17, methyl 4-({[6-bromo-2-(trifluoromethyl)quinolin-4-yl]carbonyl}amino)-1-(4-fluorobenzyl)-1H-pyrazole-3-carboxylate]
17 | 6.5 nM | O=C(O)c1nn(Cc2ccc(F)cc2)cc1NC(=O)c1cc(C(F)(F)F)nc2ccc(Br)cc12 [Example 18, 4-({[6-bromo-2-(trifluoromethyl)quinolin-4-yl]carbonyl}amino)-1-(4-fluorobenzyl)-1H-pyrazole-3-carboxylic acid]
18 | 20 nM | CN(C)C(=O)c1nn(Cc2ccc(F)cc2)cc1NC(=O)c1cc(C(F)(F)F)nc2ccc(Br)cc12 [Example 19, 6-bromo-N-[3-(dimethylcarbamoyl)-1-(4-fluorobenzyl)-1H-pyrazol-4-yl]-2-(trifluoromethyl)quinoline-4-carboxamide]
19 | 2000 nM | O=C(NCCO)c1nn(Cc2ccc(F)cc2)cc1NC(=O)c1cc(C(F)(F)F)nc2ccc(Br)cc12 [Example 20, 6-bromo-N-{1-(4-fluorobenzyl)-3-[(2-hydroxyethyl)carbamoyl]-1H-pyrazol-4-yl}-2-(trifluoromethyl)quinoline-4-carboxamide]
20 | 1150 nM | NC(=O)c1nn(Cc2ccc(F)cc2)cc1NC(=O)c1cc(C(F)(F)F)nc2ccc(Br)cc12 [Example 21, 6-bromo-N-[3-carbamoyl-1-(4-fluorobenzyl)-1H-pyrazol-4-yl]-2-(trifluoromethyl)quinoline-4-carboxamide]
21 | 20100 nM | CNC(=O)c1nn(Cc2ccc(F)cc2)cc1NC(=O)c1cc(C(F)(F)F)nc2ccc(Br)cc12 [Example 22, 6-bromo-N-[1-(4-fluorobenzyl)-3-(methylcarbamoyl)-1H-pyrazol-4-yl]-2-(trifluoromethyl)quinoline-4-carboxamide]
22 | 20100 nM | COCCNC(=O)c1nn(Cc2ccc(F)cc2)cc1NC(=O)c1cc(C(F)(F)F)nc2ccc(Br)cc12 [Example 23, 6-bromo-N-{1-(4-fluorobenzyl)-3-[(2-methoxyethyl)carbamoyl]-1H-pyrazol-4-yl}-2-(trifluoromethyl)quinoline-4-carboxamide]
23 | 1650 nM | COC(=O)c1nn(Cc2ccc(C#N)cc2)cc1NC(=O)c1cc(C(F)(F)F)nc2ccc(Br)cc12 [Example 24, methyl 4-({[6-bromo-2-(trifluoromethyl)quinolin-4-yl]carbonyl}amino)-1-(4-cyanobenzyl)-1H-pyrazole-3-carboxylate]
24 | 10200 nM | N#Cc1ccc(Cn2cc(NC(=O)c3cc(C(F)(F)F)nc4ccc(Br)cc34)c(C(=O)O)n2)cc1 [Example 25, 4-({[6-bromo-2-(trifluoromethyl)quinolin-4-yl]carbonyl}amino)-1-(4-cyanobenzyl)-1H-pyrazole-3-carboxylic acid]
25 | 7040 nM | N#Cc1ccc(Cn2cc(NC(=O)c3cc(C(F)(F)F)nc4ccc(Br)cc34)c(C(=O)NCCO)n2)cc1 [Example 26, 6-bromo-N-{1-(4-cyanobenzyl)-3-[(2-hydroxyethyl)carbamoyl]-1H-pyrazol-4-yl}-2-(trifluoromethyl)quinoline-4-carboxamide]
26 | 893 nM | CNC(=O)c1nn(Cc2ccc(C#N)cc2)cc1NC(=O)c1cc(C(F)(F)F)nc2ccc(Br)cc12 [Example 27, 6-bromo-N-[1-(4-cyanobenzyl)-3-(methylcarbamoyl)-1H-pyrazol-4-yl]-2-(trifluoromethyl)quinoline-4-carboxamide]
